Test results: patent US10752591B2, “18-20 member bi-polycyclic compounds” (Haro Pharmaceutical Inc., priority 2014, dated 2020)

Assays:
Assay type in all cases: cell-based
[1] = tested on: Lys40 acetylated alpha tubulin; experiment: intracellular acetylation of alpha-tubulin in BE-2C cells
Protocol: (§1) The effect of certain compounds on intracellular acetylation of target proteins was tested in high risk neuroblastoma cells, BE-2C and IMR-32 cells.
BE-2C cells were grown to confluence in phenol-red-free RPMI media supplemented with 10% FBS and 2.5 mM Ala-Glu. […] Total and Lys 40 acetylated alpha tubulin were detected using specific antibodies.
(§2) Beta actin, total and Lys382 acetylated p53, and Lys40 acetylated alpha, and total tubulin were detected using antibodies (Cell Signaling #8557, #2524 #2525, #12152 and #2144 respectively) using manufacturer recommended conditions.

Lys382 acetylated p53 = experiment: intracellular acetylation of p53 in IMR-32 cells (western blot); conditions: 1 μM or 5 μM, 16 hours
Protocol: as §1
IMR32 cells were grown to confluence in phenol-red-free RPMI media supplemented with 10% es grade FBS and 2.5 mM Ala-Glu. Cells were treated with DMSO or 1 μM or 5 μM compound 13 in DMSO for 16 hours. Protein extracts were prepared in RIPA buffer in the presence of protease and phosphatase inhibitors. Proteins were separated on a 4-20% gel by PAGE and transferred to a nitrocellulose membrane.
as §2

[2] = tested on: IMR-32 neuroblastoma cells; experiment: cytotoxicity, cell survival (CellTiterGlo) in IMR-32; conditions: relative to compounds 17 and 8
Protocol: The cytotoxicity of compounds was examined and directly compared to compound 17, by measuring cell survival of clonal tumor cell lines IMR-32, BE2C (neuroblastoma), as well as MDA-MB-231, BT20, HCC-38 (Basal) and MCF7 (luminal) breast cancer cells (ATCC). Cells were cultured in phenol red-free RPMI medium supplemented with 10% FBS and 1 mM Ala-Glu. Typically, 10,000-20,000 cells/well were plated in a 96 well plate (Costar 3197). Cells were exposed to compounds or vehicle (1% DMSO final). Cells were maintained in the presence of compound for four or five days. Media and compounds were renewed every 48 hours. Cell survival was measured using the luminescence CellTiterGlo kit (Promega Corporation) and expressed as relative light unit as fold over DMSO.

## CC1(C)CCC(C)(C)c2cc(-c3cc4cc(C(=O)NO)ccc4[nH]3)ccc21 [Compound 13]
[1]
  alpha tubulin acetylation by LC-MS analysis: lack of increased alpha tubulin acetylation
[1]; 5 μM, 16 hours
  Lysin (K) 40 alpha-Tubulin acetylation: no significant acetylation
Lys382 acetylated p53
  lysine acetylated p53 level: pronounced accumulation of lysine acetylated p53
[2]
  fold more potent than compounds 17 and 8 in killing IMR-32 cells: ten
